Measurements taken from patent US8288548B2, “Oxazolo[5-4-b]pyridin-5-yl compounds” (Eli Lilly and Company, priority 2010, dated 2012).
Marks after values point to notes of the source that are not given here.

How the values were obtained:
[1] = Plasma concentration after last dose in the A2780 xenograft model; format: in vivo, CD1 nu/nu mice
Experimental: (§1) Female CD1 nu/nu mice are obtained from Charles River Laboratories at approximately 22-25 g. After 1 week acclimation, 2×10^6 A2780 human ovarian carcinoma cells are injected subcutaneously in the rear flank of each mouse in a 0.2 mL volume in a 1:1 mixture of cell culture media and BD […]™ matrix. Tumor size is monitored by caliper measurement twice per week. When the average tumor size reaches 150 mm^3, animals are randomized into groups of 10. p38 MAP kinase inhibitor treatment is initiated after randomization. Example 2 is dosed orally in a 0.2 mL volume of 1% HEC, 0.25% TWEEN® 80, 0.05% antifoam (HEC/TWEEN®). The compound is dosed at doses of 1, 3, and 10 mg/kg. Dosing is performed three times per day (TID) on a schedule of 4 days on, 3 days off. Three cycles of dosing is performed. Tumor volume is monitored twice per week during the dosing period, and efficacy (tumor growth inhibition) is monitored relative to a vehicle control group (n=10 animals). At 1, 2 and 8 hours after the last p38 MAP kinase inhibitor dose, plasma is obtained from animals to determine the circulating levels of compound in the animals.

[2] = test system: OPM-2 cells; assay: OPM-2 multiple myeloma xenograft model; format: in vivo, CB-17 SCID mice; conditions: PO, BID
Experimental: Female CB-17 SCID mice are obtained from Taconic at 20-22 g weight. After acclimating for one week, mice are irradiated with a dose of 2.5 Gray. Within 24 hours following irradiation, mice are injected sub-cutaneously in the rear flank with 1.0×10^7 OPM-2 cells in a 0.2 mL volume in a 1:1 mixture of cell culture media and BD […]™ matrix. Tumor size is monitored by caliper measurement twice per week. When the tumor size reaches 100-150 mm^3, animals are randomized into dose groups. Compound treatment is initiated after randomization. Example 2 is dosed orally in a 0.2 mL volume of 1% HEC, 0.25% TWEEN® 80, 0.05% antifoam (HEC/TWEEN®). The compound is dosed at doses of 15 and 30 mg/kg. Dosing is performed two times per day (BID) for 28 days of treatment. Tumor volume is monitored twice per week during the dosing period, and efficacy (tumor growth inhibition) is monitored relative to a vehicle control group (n=10 animals).

[3] = test system: A2780 human ovarian carcinoma cells; assay: A2780 xenograft model, tumor growth inhibition; format: in vivo, CD1 nu/nu mice; conditions: 4 day on, 3 d off
Experimental: as §1

[4] = test system: 786-O human renal cell carcinoma cells; assay: 786-O xenograft model in combination with sunitinib; format: in vivo, athymic nude mice; conditions: BID x 28
Experimental: Female athymic nude mice are obtained from Harlan Labs at a weight of 24-26 g. […] Tumor size is monitored by caliper measurement twice per week. […] The compound is dosed orally in a 0.2 mL volume of 1% HEC, 0.25% TWEEN® 80, 0.05% antifoam (HEC/TWEEN®). […] Tumor volume is monitored twice per week and efficacy (tumor growth inhibition) is compared relative to vehicle-treated control animals. […] Statistical assessment of synergy was performed using two-way repeated measures analysis of variance on log tumor volume vs. time.

2-[5-(2,4-Difluorophenyl)-4-[2-[[(1S)-3-methoxy-1-methyl-propyl]amino]oxazolo[5,4-b]pyridin-5-yl]-1H-imidazol-2-yl]-2-methyl-propan-1-ol, methanesulfonate [Example 2]
Mean Plasma Concentration (μM) at time (hour) post-last dose ([1]; 1 mg/kg PO TID, 1 hour post-last dose): 0.0263 µM | Mean Plasma Concentration (μM) at time (hour) post-last dose ([1]; 1 mg/kg PO TID, 2 hour post-last dose): 0.0146 µM | Mean Plasma Concentration (μM) at time (hour) post-last dose ([1]; 3 mg/kg PO TID, 1 hour post-last dose): 0.0526 µM | Mean Plasma Concentration (μM) at time (hour) post-last dose ([1]; 3 mg/kg PO TID, 2 hour post-last dose): 0.0604 µM | Mean Plasma Concentration (μM) at time (hour) post-last dose ([1]; 3 mg/kg PO TID, 3 hour post-last dose): 0.0042 µM | Mean Plasma Concentration (μM) at time (hour) post-last dose ([1]; 10 mg/kg PO TID, 1 hour post-last dose): 0.4952 µM | Mean Plasma Concentration (μM) at time (hour) post-last dose ([1]; 10 mg/kg PO TID, 2 hour post-last dose): 0.3978 µM | Mean Plasma Concentration (μM) at time (hour) post-last dose ([1]; 10 mg/kg PO TID, 3 hour post-last dose): 0.0243 µM | Mean tumor size (mm3) ([2]; 15 mpk, Day 4): 101.69 mm3 | Mean tumor size (mm3) ([2]; 15 mpk, Day 8): 87.96 mm3 | Mean tumor size (mm3) ([2]; 15 mpk, Day 11): 104.9 mm3 | Mean tumor size (mm3) ([2]; 15 mpk, Day 15): 104.21 mm3 | Mean tumor size (mm3) ([2]; 15 mpk, Day 18): 120.17 mm3 | Mean tumor size (mm3) ([2]; 15 mpk, Day 21): 182.47 mm3 | Mean tumor size (mm3) ([2]; 15 mpk, Day 25): 169.53 mm3 | Mean tumor size (mm3) ([2]; 15 mpk, Day 29): 214.28 mm3 | Mean tumor size (mm3) ([2]; 15 mpk, Day 33): 326.29 mm3 | Mean tumor size (mm3) ([2]; 15 mpk, Day 36): 384.59 mm3 | Mean tumor size (mm3) ([2]; 15 mpk, Day 43): 628.46 mm3 | Mean tumor size (mm3) ([2]; 15 mpk, Day 46): 700.62 mm3 | Mean tumor size (mm3) ([2]; 15 mpk, Day 49): 937.29 mm3 | Mean tumor size (mm3) ([2]; 15 mpk, Day 53): 1138.19 mm3 | Mean tumor size (mm3) ([2]; 30 mpk, Day 4): 97.8 mm3 | Mean tumor size (mm3) ([2]; 30 mpk, Day 8): 90.78 mm3 | Mean tumor size (mm3) ([2]; 30 mpk, Day 11): 118.46 mm3 | Mean tumor size (mm3) ([2]; 30 mpk, Day 15): 95.34 mm3 | Mean tumor size (mm3) ([2]; 30 mpk, Day 18): 103.71 mm3 | Mean tumor size (mm3) ([2]; 30 mpk, Day 21): 115.16 mm3 | Mean tumor size (mm3) ([2]; 30 mpk, Day 25): 155.27 mm3 | Mean tumor size (mm3) ([2]; 30 mpk, Day 29): 154.83 mm3 | Mean tumor size (mm3) ([2]; 30 mpk, Day 33): 224.14 mm3 | Mean tumor size (mm3) ([2]; 30 mpk, Day 36): 243.32 mm3 | Mean tumor size (mm3) ([2]; 30 mpk, Day 43): 407.07 mm3 | Mean tumor size (mm3) ([2]; 30 mpk, Day 46): 527.14 mm3 | Mean tumor size (mm3) ([2]; 30 mpk, Day 49): 642.22 mm3 | Mean tumor size (mm3) ([2]; 30 mpk, Day 53): 812.48 mm3 | Tumor Growth Inhibition (%) ([3]; 1 mg/kg PO TID, Day 20): 70.6% | Tumor Growth Inhibition (%) ([3]; 1 mg/kg PO TID, Day 23): 76.6% | Tumor Growth Inhibition (%) ([3]; 1 mg/kg PO TID, Day 26): 76% | Tumor Growth Inhibition (%) ([3]; 1 mg/kg PO TID, Day 29 (final)): 78.3% | Tumor Growth Inhibition (%) ([3]; 3 mg/kg PO TID, Day 20): 32.5% | Tumor Growth Inhibition (%) ([3]; 3 mg/kg PO TID, Day 23): 47.7% | Tumor Growth Inhibition (%) ([3]; 3 mg/kg PO TID, Day 26): 42.7% | Tumor Growth Inhibition (%) ([3]; 3 mg/kg PO TID, Day 29 (final)): 37.7% | Tumor Growth Inhibition (%) ([3]; 10 mg/kg PO TID, Day 20): 60% | Tumor Growth Inhibition (%) ([3]; 10 mg/kg PO TID, Day 23): 71.2% | Tumor Growth Inhibition (%) ([3]; 10 mg/kg PO TID, Day 26): 72.8% | Tumor Growth Inhibition (%) ([3]; 10 mg/kg PO TID, Day 29 (final)): 74.8%

COCC[C@H](C)Nc1nc2ccc(-c3nc(C(C)(C)CO)[nH]c3-c3ccc(F)cc3F)nc2o1.Cl [Example 3, 2-[5-(2,4-Difluorophenyl)-4-[2-[[(1S)-3-methoxy-1-methyl-propyl]amino]oxazolo[5,4-b]pyridin-5-yl]-1H-imidazol-2-yl]-2-methyl-propan-1-ol, hydrochloride]
% Tumor Growth Inhibition ([4]; Example 3 15 mg/kg PO, Day 17): −35.5% | % Tumor Growth Inhibition ([4]; Example 3 15 mg/kg PO, Day 21): −23% | % Tumor Growth Inhibition ([4]; Example 3 15 mg/kg PO, Day 24): −52.4% | % Tumor Growth Inhibition ([4]; Example 3 15 mg/kg PO, Day 28): −74.1* % | % Tumor Growth Inhibition ([4]; Example 3 15 mg/kg PO, Day 31): −58.8* %

CCN(CC)CCNC(=O)c1c(C)[nH]c(/C=C2\C(=O)Nc3ccc(F)cc32)c1C [Sunitinib]
% Tumor Growth Inhibition ([4]; Sunitinib 10 mg/kg PO, Day 17): −1.6% | % Tumor Growth Inhibition ([4]; Sunitinib 10 mg/kg PO, Day 21): 2.9% | % Tumor Growth Inhibition ([4]; Sunitinib 10 mg/kg PO, Day 24): −16.3% | % Tumor Growth Inhibition ([4]; Sunitinib 10 mg/kg PO, Day 28): −21.2% | % Tumor Growth Inhibition ([4]; Sunitinib 20 mg/kg PO, Day 17): −55.9% | % Tumor Growth Inhibition ([4]; Sunitinib 20 mg/kg PO, Day 21): 31.5% | % Tumor Growth Inhibition ([4]; Sunitinib 20 mg/kg PO, Day 24): 18% | % Tumor Growth Inhibition ([4]; Sunitinib 20 mg/kg PO, Day 28): 34.5% | % Tumor Growth Inhibition ([4]; Sunitinib 20 mg/kg PO, Day 31): 35.4* %
